Test results: patent US4457919A, “Method of imparting immunomodulating, antiviral or antitumor activity” (Newport Pharmaceutical International, Inc., priority 1982, dated 1984)
Like-named read-outs stand apart in the source and are kept apart here.

Legend:
[1] = Chemical stability at varying pH, conversion to NPT 15392 (HPLC); type: physicochemical; conditions: for degraded at 3.5 h, 360 µM: 3.5 hours incubation at 37° C., 0.36 μm/ml
Experimental: Compound (conc.) % of NPT 15392*
*3.5 hours incubation at 37° C., determined using HPLC

mouse spleen cells = assay: PHA mitogen-induced lymphocyte proliferation using murine spleen cells (in vitro); type: cell-based; conditions: for Cpm Incorp. +PHA: with PHA; for Cpm Incorp. -PHA: without PHA
Description: 1. Mitogen induced lymphocyte proliferation using murine spleen cells (in vitro).

[2] = test system: human peripheral blood lymphocytes; assay: PHA mitogen-induced lymphocyte proliferation using human peripheral blood lymphocytes (HPBL); type: cell-based; conditions: for Cpm Incorp. +PHA: with PHA; for Cpm Incorp. -PHA: without PHA; for S.I.: NPT 15458 p ≤ 0.05
Experimental: 2. Mitogen induced lymphocyte proliferation using human peripheral blood lymphocytes (HPBL) (in vitro).
1. Twenty-two and a half grams of Ficoll 400 (Pharmacia, M.W. .perspectiveto.400,000) are dissolved in 200 ml of distilled H2 O. When most of the material is in solution, the volume is then adjusted to 250 ml with distilled H2 O.
2. Thirty-four grams of Hypaque (sodium diatrizoate, Sterling Organics, M.W. .perspectiveto.636) are dissolved in 100 ml distilled H2 O.
3. Solutions are then sterile filtered thorugh a 0.45μ millipore filter and stored in sterile containers at 4° C. away from light.
4. Working solutions are prepared by mixing 10 ml Hypaque solution with 24 ml Ficoll solution. The mixture is warmed to 25° C. with constant stirring.
1. Human blood samples are obtained by veinipuncture into heparinized 20 ml-vacutainer tubes. Fifteen to twenty ml of the undiluted blood is gently layered over an equal volume of Ficoll-Hypaque solution in sterile 50 ml polycarbonate centrifuge tubes using aseptic techniques.
2. Prepared samples are centrifuged at 25° C., 400×g for 30 mins. The fuzzy white band at the interface is aseptically aspirated into a 50 ml sterile centrifuge tube with 10-20 ml RPMI-1640. The cells are washed once at 25° C. 400×g for 10 mins. at 25° C.
3. Pelleted PBL's are resuspended in 1 ml RPMI for every 8 ml whole blood originally used and counted with a Coulter counter. Concentration is adjusted with RPMI-1640 supplemented with glutamine and antibiotics. The cells are held at room temperatue until used.
1. Lipopolysaccharide B or Phytohemagglutinin P powder is weighed and dissolved in RPMI-1640 at a concentration of 1000 μg/ml (1 mg/ml) and filter sterilized through a 0.45μ millipore filter.
2. Solutions are aliquotted (1 ml/tube) asceptically into labelled sterile cryotubes and frozen. Samples are not refrozen after partial use, but may be stored for a day or two at 4° C. Lyophilized powder is kept refrigerated at 4° C.
1. PBL's are prepared as in SOP #I-004 in serum-free RPMI-1640 supplemented with glutamine and antibiotic-antimycotic solution (GIBCO). One tenth ml per well is added to each well of 96-well microtest culture plates (CoStar Plastics) with 8-channel automatic micropipettors (Flow Labs.) fitted with sterile tips.
2. Mitogen solutions are thawed rapidly and diluted to 4 times the desired concentration with RPMI-1640.
3. Test compounds are prepared for use as per SOP #C-002, using RPMI-1640 as diluent, and diluted to 4 times the final desired concentration.
4. Fifty μl of each dilution of mitogen and/or test compound is added to 6 replicate cultures. Plain RPMI-1640 is used in the same amounts in control cultures for a total volume of 0.2 ml/well.
5. Cultures are incubated at 37° C. in a humidified 95% air, 5% CO2 atmosphere (pH .perspectiveto.6.0- 7.0) for 48 hours. The cells are then labelled with 0.5μCi/well ^3 H-TdR (Thymidine) for an additional 18 hours. the cells are harvested with a multiple automatic sample harvester (M.A.S.H.) machine. Nonadherent cells are aspirated onto glass fiber filter strips with 0.9% saline solution (10 well flushes) and the cells lysed with distilled water (20 well flushes). The strips are thoroughly air dried, residual cell deposits cut from the strips and each sample placed in 1 dram glass scintillation vials. Scintillation fluid concentrate (Scintiprep 1, Fisher Chemicals) is diluted 1:50 with scintillation grade toluene (Packard) and 1 ml added to each vial. Samples are evaluated by liquid scintillation spectroscopy and the data expressed as the means counts per minute per test group.

HPBL (active E-rosettes) = assay: Enhancement of active E-rosette formation in HPBL (in vitro); type: cell-based, human
Experimental: 3. Enhancement of active rosette formation (in vitro).
3. As can be noted from Table 7, both NPT 15457 and NPT 15458 are effective in modulating active rosette formation in HPBL. […] In Experiment #2, placebo-treated controls have abnormally high values for active rosettes.
1. Ten to 40 ml of whole blood is drawn from healthy volunteers in heparinized tubes.
2. Lymphocytes are separated from the above blood using Ficoll-hypaque separation techniques.
3. Various concentration of test compound are prepared in RPMI-1640.
4. The concentration of lymphocytes are adjusted to 2×10^6 /ml of RPMI-1640.
5. Lymphocytes are incubated with test compound for 90 minutes at 37° C.
6. Sheep Red Blood Cells (SRBC.s) (one to two weeks old) are washed 3 times with PBS and diluted to a final concentration of 0.5% inj RPMI-1640.
7. Reaction tubes are set up containing the following:
8. The above reactants are centrifuged at 200×g for 5 minutes at room temperature.
9. The sediment is then gently resuspended and a […] sample placed in a hemocytometer.
10. The number of rosettes are then counted using a microscope with any lymphocyte having 3 or more attached red cells being counted as a rosette.

[3] = Formation of NPT 15392 on incubation with liver homogenate (HPLC); type: in vitro ADME
Description: | ^a Determined using HPLC

[4] = Blood levels after i.p. administration to mice; type: in vivo; conditions: for Blood Level of NPT 15458: i.p., 360 μm/kg of compound administered
Description: This clearly establishes the fact that NPT 15458 and NPT 15457 can produce NPT 15392 in vivo and further at least one of these derivatives gives much higher blood levels allowing for greater activity.

[5] = test system: Influenza virus (A sub-type)
[6] = 0.036 n moles/ml, NPT 15392 values means of three experiments
[7] = 0.36 n moles/ml, NPT 15392 values means of three experiments
[8] = 3.6 n moles/ml, NPT 15392 values means of three experiments

Compound: CCCCCC[C@H]([C@H](C)OC(C)=O)n1cnc2c(=O)[nH]cnc21 (relative stereo) [NPT 15458, erythro-9-(2-Acetoxy-3-Nonyl)-Hypoxanthine]
- Chemical stability (in words) ([1]; 37° C., neutral pH): have stability
- degraded at 3.5 h, 360 µM ([1]; pH 1.0): 8%
- Chemical conversion to NPT 15392 (in words) ([1]; pH 7.0): No
- degraded at 3.5 h, 360 µM ([1]; pH 7.0): 0%
- Chemical conversion to NPT 15392 (in words) ([1]; pH 9.5): basic hydrolysis at pH 9.5 can convert and Yes
- degraded at 3.5 h, 360 µM ([1]; pH 9.5): 28%
- S.I. (stimulation index) (mouse spleen cells; 10 ng/ml): 436
- Cpm Incorp. +PHA (mouse spleen cells; 10 ng/ml): 66,800 Cpm
- Cpm Incorp. -PHA (mouse spleen cells; 10 ng/ml): 153 Cpm
- S.I. (stimulation index) (mouse spleen cells; 50 ng/ml): 589
- Cpm Incorp. +PHA (mouse spleen cells; 50 ng/ml): 81,297 Cpm
- Cpm Incorp. -PHA (mouse spleen cells; 50 ng/ml): 138 Cpm
- fold induction at 0.01 µg/mL (mouse spleen cells; Mus musculus, Lymphocyte, 10 ng/ml, read-out: D/C (S.I. drug / control)): 0.93
- fold induction at 0.05 µg/mL (mouse spleen cells; Mus musculus, Lymphocyte, 50 ng/ml, read-out: D/C (S.I. drug / control)): 1.25
- activation at 50 µg/mL (mouse spleen cells; Mus musculus, Lymphocyte, 50 μg/ml, read-out: Increase of PHA induced lymphocyte proliferation): ~25%
- Cpm Incorp. +PHA [2, 6]: 59,898 Cpm
- Cpm Incorp. -PHA [2, 6]: 214 Cpm
- S.I. [2, 6]: 280
- Cpm Incorp. +PHA [2, 7]: 63,858 Cpm
- Cpm Incorp. -PHA [2, 7]: 221 Cpm
- S.I. [2, 7]: 289
- Cpm Incorp. +PHA [2, 8]: 69,055 Cpm
- Cpm Incorp. -PHA [2, 8]: 238 Cpm
- S.I. [2, 8]: 290
- fold induction at 0.036 µM ([2]; Homo sapiens, Lymphocyte, 0.036 n moles/ml, NPT 15392 values means of three experiments, read-out: D/C (S.I. drug / control)): 1.43
- fold induction at 0.36 µM ([2]; Homo sapiens, Lymphocyte, 0.36 n moles/ml, NPT 15392 values means of three experiments, read-out: D/C (S.I. drug / control)): 1.48
- fold induction at 3.6 µM ([2]; Homo sapiens, Lymphocyte, 3.6 n moles/ml, NPT 15392 values means of three experiments, read-out: D/C (S.I. drug / control)): 1.48
- Immunomodulating (in vitro) lymphocyte proliferation (in words) ([2]; PHA, HPBL): effectve in augmenting PHA induced lymphocyte proliferation and Yes
- Immunomodulating (in vitro) Lymph. Prolif., change ([2]; Table 11 summary): 43-48%
- % Active E-Rosettes (mean ± S.E.) (HPBL (active E-rosettes); Experiment #1, 3.6 n moles/ml, placebo 9.23 ± 2.9, NPT 15457 and NPT 15458 p ≤ 0.05 versus placebo): 19.4 ± 1.0%
- % Active E-Rosettes (mean ± S.E.) (HPBL (active E-rosettes); Experiment #2, 0.36 n moles/ml, placebo 34.2 ± 6.6, NPT 15392 and NPT 15458 p ≤ 0.05 versus placebo): 23.25 ± 1.24%
- Immunomodulating (in vitro) Rosette, change (HPBL (active E-rosettes); Table 11 summary): +11%
- Immunomodulating (in vitro) rosette formation (in words) (HPBL (active E-rosettes); active rosettes, HPBL): as active as NPT 15392 in restoring the depressed immunity to normal levels and able to decrease the high levels of normal values and Yes
- % of NPT 15392 ([3]; 0 hrs.): 0%
- metabolised at 0.5 h ([3]; 0.5 hrs.): 70%
- Convertible to NPT 15392, Biological: Mouse ([4]; Table 11 summary): 100
- Blood Level of NPT 15458 ([4]; animal # 1): 0 μm/ml × 10^3
- Blood Level of NPT 15458 ([4]; animal # 2): 0 μm/ml × 10^3
- % Inhibition of Influenza Virus Growth ([5]; 3.6 nmoles/ml): 40%
- % Inhibition of Influenza Virus Growth ([5]; 10.8 nmoles/ml): 80%
- % Inhibition of Influenza Virus Growth ([5]; 36 nmoles/ml): 88%
- % Inhibition of Influenza Virus Growth ([5]; .36 nmoles/ml): 26%
- Cleavage to NPT 15392 (in words) ([5]; hemadsorption assay): almost completely cleaved to NPT 15392
- Antiviral activity in vitro (in words) ([5]; in vitro): Yes
